Reference: US20080175794A1, “Substituted Pyridazinyl- and Pyrimidinyl-Quinolin-4-Ylamine Analogues” (NEUROGEN CORPORATION, priority 2005, published 2008)

molecular target: T1, human capsaicin receptor (Homo sapiens, UniProt Q8NER1); test: Calcium mobilization assay, determination of antagonist activity (Example 6); assay type: cell-based; conditions: Table III; assay provided in Example 6; cells expressing human capsaicin receptor, capsaicin at EC50
T1 construct: expressed in transfected cells
Description: A cDNA encoding full length human capsaicin receptor (SEQ ID NO:1, 2 or 3 of U.S. Pat. No. 6,482,611) is subcloned in the plasmid pBK-CMV (Stratagene, La Jolla, Calif.) for recombinant expression in mammalian cells.
Human embryonic kidney (HEK293) cells are transfected with the pBK-CMV expression construct encoding the full length human capsaicin receptor using standard methods. The transfected cells are selected over two weeks in media containing G418 (400 μg/ml) to obtain a pool of stably transfected cells. Independent clones are isolated from this pool by limiting dilution to obtain clonal stable cell lines for use in subsequent experiments.
Cells transfected with expression plasmids (as described in Example 4) and thereby expressing human capsaicin receptor are seeded and grown to 70-90% confluency in FALCON black-walled, clear-bottomed 96-well plates (#3904, BECTON-DICKINSON, Franklin Lakes, N.J.). The culture medium is emptied from the 96 well plates and FLUO-3 AM calcium sensitive dye (Molecular Probes, Eugene, Oreg.) is added to each well (dye solution: 1 mg FLUO-3 AM, 440 μL DMSO and 440 μl 20% pluronic acid in DMSO, diluted 1:250 in Krebs-Ringer HEPES (KRH) buffer (25 mM HEPES, […], 0.96 mM NaH2PO4, 1 mM MgSO4, 2 mM CaCl2, 5 mM glucose, 1 mM probenecid, pH 7.4), 50 μl diluted solution per well). Plates are covered with aluminum foil and incubated at 37° C. for 1-2 hours in an environment containing 5% CO2. After the incubation, the dye is emptied from the plates, and the cells are washed once with KRH buffer, and resuspended in KRH buffer.
To measure the ability of a test compound to agonize or antagonize a calcium mobilization response in cells expressing capsaicin receptors to capsaicin or other vanilloid agonist, the EC50 of the agonist capsaicin is first determined. An additional 20 μl of KRH buffer and 1 μl DMSO is added to each well of cells, prepared as described above. 100 μl capsaicin in KRH buffer is automatically transferred by the FLIPR instrument to each well. Capsaicin-induced calcium mobilization is monitored using either FLUOROSKAN ASCENT (Labsystems; Franklin, Mass.) or FLIPR (fluorometric imaging plate reader system; Molecular Devices, Sunnyvale, Calif.) instruments. Data obtained between 30 and 60 seconds after agonist application are used to generate an 8-point concentration response curve, with final capsaicin concentrations of 1 nM to 3 μM. KALEIDAGRAPH software (Synergy Software, Reading, Pa.) is used to fit the data to the equation: […]
Test compounds are dissolved in DMSO, diluted in 20 μl KRH buffer so that the final concentration of test compounds in the assay well is between […] and 5 μM, and added to cells prepared as described above. The 96 well plates containing prepared cells and test compounds are incubated in the dark at room temperature for 0.5 to 6 hours. It is important that the incubation not continue beyond 6 hours. Just prior to determining the fluorescence response, 100 μl capsaicin in KRH buffer at twice the EC50 concentration determined as described above is automatically added by the FLIPR instrument to each well of the 96 well plate for a final sample volume of 200 μl and a final capsaicin concentration equal to the EC50. The final concentration of test compounds in the assay wells is between 1 μM and 5 μM. […] The concentration of antagonist required to provide a 50% decrease, relative to the response observed in the presence of capsaicin and without antagonist, is the IC50 for the antagonist, and is preferably below 1 micromolar, 100 nanomolar, 10 nanomolar or 1 nanomolar.

T1 sequence (Q8NER1 whole entry): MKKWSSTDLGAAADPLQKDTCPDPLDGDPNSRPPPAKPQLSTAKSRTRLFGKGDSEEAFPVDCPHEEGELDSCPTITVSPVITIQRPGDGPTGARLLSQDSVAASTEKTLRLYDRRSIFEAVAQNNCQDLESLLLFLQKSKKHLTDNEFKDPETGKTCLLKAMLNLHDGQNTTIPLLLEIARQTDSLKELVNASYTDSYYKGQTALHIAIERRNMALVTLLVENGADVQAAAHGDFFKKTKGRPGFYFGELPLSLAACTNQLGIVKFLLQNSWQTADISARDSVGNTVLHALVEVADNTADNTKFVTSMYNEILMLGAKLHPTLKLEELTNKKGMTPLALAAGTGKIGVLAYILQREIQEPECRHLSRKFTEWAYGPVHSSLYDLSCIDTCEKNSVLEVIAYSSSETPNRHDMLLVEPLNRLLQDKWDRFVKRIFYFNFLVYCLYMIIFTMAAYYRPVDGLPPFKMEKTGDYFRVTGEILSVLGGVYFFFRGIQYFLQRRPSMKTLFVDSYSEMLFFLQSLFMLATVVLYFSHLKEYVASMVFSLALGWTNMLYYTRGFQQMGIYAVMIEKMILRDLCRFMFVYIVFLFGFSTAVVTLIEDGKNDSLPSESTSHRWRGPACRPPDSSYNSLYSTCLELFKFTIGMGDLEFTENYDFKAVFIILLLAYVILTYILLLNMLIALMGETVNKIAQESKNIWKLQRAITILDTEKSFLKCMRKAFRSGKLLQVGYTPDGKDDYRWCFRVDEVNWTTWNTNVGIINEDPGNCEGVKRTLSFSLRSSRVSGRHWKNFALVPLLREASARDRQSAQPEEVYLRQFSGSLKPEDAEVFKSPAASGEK

IC50, < 1 µM:
CCN1CCN(c2cc(C(F)(F)F)c(-c3cnc4c(Nc5ccc(C(F)(F)F)cn5)ccnc4n3)nn2)CC1 [Compound 88, 3-[6-(4-ethylpiperazin-1-yl)-4-(trifluoromethyl)pyridazin-3-yl]-N-[5-(trifluoromethyl)pyridin-2-yl]pyrido[2,3-b]pyrazin-8-amine]
CCNc1cc(C(F)(F)F)c(-c2cnc3c(Nc4ccc(C(F)(F)F)cn4)ccnc3n2)nn1 [Compound 101, 3-[6-(ethylamino)-4-(trifluoromethyl)pyridazin-3-yl]-N-[5-(trifluoromethyl)pyridin-2-yl]pyrido[2,3-b]pyrazin-8-amine]
NC(=O)CNc1cc(C(F)(F)F)c(-c2cnc3c(Nc4ccc(C(F)(F)F)cn4)ccnc3n2)nn1 [Compound 113, N2-[5-(trifluoromethyl)-6-(8-{[5-(trifluoromethyl)pyridin-2-yl]amino}pyrido[2,3-b]pyrazin-3-yl)pyridazin-3-yl]glycinamide]
O[C@H]1CCN(c2cc(C(F)(F)F)c(-c3cnc4c(Nc5ccc(C(F)(F)F)cn5)ccnc4n3)nn2)C1 [Compound 193]
CCC(COC)Nc1cc(C(F)(F)F)c(-c2cnc3c(Nc4ccc(C(F)(F)F)cn4)ccnc3n2)nn1 (stereo not shown) [Compound 166, 3-[6-{[1-(methoxymethyl)propyl]amino}-4-(trifluoromethyl)pyridazin-3-yl]-N-[5-(trifluoromethyl)pyridin-2-yl]pyrido[2,3-b]pyrazin-8-amine]
CS(=O)(=O)c1ccc(Nc2ccnc3nc(-c4nnccc4C(F)(F)F)cnc23)nc1 [Compound 47, N-[5-(methylsulfonyl)-2-pyridinyl]-3-[4-(trifluoromethyl)-3-pyridazinyl]pyrido[2,3-b]pyrazin-8-amine]
CCC(O)CNc1cc(C(F)(F)F)c(-c2cnc3c(Nc4ccc(C(F)(F)F)cn4)ccnc3n2)nn1 (stereo not shown) [Compound 173, 1-{[5-(trifluoromethyl)-6-(8{[5-(trifluoromethyl)pyridin-2-yl]amino}pyrido[2,3-b]pyrazin-3-yl)pyridazin-3-yl]amino}butan-2-ol]
FC(F)(F)c1ccc(Nc2ccnc3nc(-c4nnc(N5CCCCC5)cc4C(F)(F)F)cnc23)nc1 [Compound 176, 3-[6-piperidin-1-yl-4-(trifluoromethyl)pyridazin-3-yl]-N-[5-(trifluoromethyl)pyridin-2-yl]pyrido[2,3-b]pyrazin-8-amine]
OCCOc1cc(C(F)(F)F)c(-c2cnc3c(Nc4ccc(C(F)(F)F)cn4)ccnc3n2)nn1 [Compound 63, 2-{[5-(trifluoromethyl)-6-(8-{[5-(trifluoromethyl)pyridin-2-yl]amino}pyrido[2,3-b]pyrazin-3-yl)pyridazin-3-yl]oxy}ethanol]
CC(C)N(CCO)c1cc(C(F)(F)F)c(-c2cnc3c(Nc4ccc(C(F)(F)F)cn4)ccnc3n2)nn1 [Compound 197, 2-{isopropyl[5-(trifluoromethyl)-6-(8-{[5-(trifluoromethyl)pyridin-2-yl]amino}pyrido[2,3-b]pyrazin-3-yl)pyridazin-3-yl]amino}ethanol]
OCCCNc1cc(C(F)(F)F)c(-c2cnc3c(Nc4ccc(C(F)(F)F)cn4)ccnc3n2)nn1 [Compound 169, 3-{[5-(trifluoromethyl)-6-(8-{[5-(trifluoromethyl)pyridin-2-yl]amino}pyrido[2,3-b]pyrazin-3-yl)pyridazin-3-yl]amino}propan-1-ol]
CCCN(C)c1cc(C(F)(F)F)c(-c2cnc3c(Nc4ccc(C(F)(F)F)cn4)ccnc3n2)nn1 [Compound 121, 3-{6-[methyl(propyl)amino]-4-(trifluoromethyl)pyridazin-3-yl}-N-[5-(trifluoromethyl)pyridin-2-yl]pyrido[2,3-b]pyrazin-8-amine]
CN(C)C1CCN(c2cc(C(F)(F)F)c(-c3cnc4c(Nc5ccc(C(F)(F)F)cn5)ccnc4n3)nn2)CC1 [Compound 96, 3-{6-[4-(dimethylamino)piperidin-1-yl]-4-(trifluoromethyl)pyridazin-3-yl}-N-[5-(trifluoromethyl)pyridin-2-yl]pyrido[2,3-b]pyrazin-8-amine]
COCCNc1cc(C(F)(F)F)c(-c2cnc3c(Nc4ccc(C(F)(F)F)cn4)ccnc3n2)nn1 [Compound 163, 3-{6-[(2-methoxyethyl)amino]-4-(trifluoromethyl)pyridazin-3-yl}-N-[5-(trifluoromethyl)pyridin-2-yl]pyrido[2,3-b]pyrazin-8-amine]
CC(O)CNc1cc(C(F)(F)F)c(-c2cnc3c(Nc4ccc(C(F)(F)F)cn4)ccnc3n2)nn1 (stereo not shown) [Compound 116, 1-{[5-(trifluoromethyl)-6-(8-{[5-(trifluoromethyl)pyridin-2-yl]amino}pyrido[2,3-b]pyrazin-3-yl)pyridazin-3-yl]amino}propan-2-ol]
FC(F)(F)CNc1cc(C(F)(F)F)c(-c2cnc3c(Nc4ccc(C(F)(F)F)cn4)ccnc3n2)nn1 [Compound 155, 3-{6-[(2,2,2-trifluoroethyl)amino]-4-(trifluoromethyl)pyridazin-3-yl}-N-[5-(trifluoromethyl)pyridin-2-yl]pyrido[2,3-b]pyrazin-8-amine]
CCCCN(C)c1cc(C(F)(F)F)c(-c2cnc3c(Nc4ccc(C(F)(F)F)cn4)ccnc3n2)nn1 [Compound 122, 3-{6-[butyl(methyl)amino]-4-(trifluoromethyl)pyridazin-3-yl}-N-[5-(trifluoromethyl)pyridin-2-yl]pyrido[2,3-b]pyrazin-8-amine]
OCCNc1cc(C(F)(F)F)c(-c2cnc3c(Nc4ccc(C(F)(F)F)cn4)ccnc3n2)nn1 [Compound 168, 2-{[5-(trifluoromethyl)-6-(8-{[5-(trifluoromethyl)pyridin-2-yl]amino}pyrido[2,3-b]pyrazin-3-yl)pyridazin-3-yl]amino}ethanol]
CCCC(C)Nc1cc(C(F)(F)F)c(-c2cnc3c(Nc4ccc(C(F)(F)F)cn4)ccnc3n2)nn1 (stereo not shown) [Compound 158, 3-{6-[(1-methylbutyl)amino]-4-(trifluoromethyl)pyridazin-3-yl}-N-[5-(trifluoromethyl)pyridin-2-yl]pyrido[2,3-b]pyrazin-8-amine]
OCCCCNc1cc(C(F)(F)F)c(-c2cnc3c(Nc4ccc(C(F)(F)F)cn4)ccnc3n2)nn1 [Compound 172, 4-{[5-(trifluoromethyl)-6-(8-{[5-(trifluoromethyl)pyridin-2-yl]amino}pyrido[2,3-b]pyrazin-3-yl)pyridazin-3-yl]amino}butan-1-ol]
CCN(CC)CCCNc1cc(C(F)(F)F)c(-c2cnc3c(Nc4ccc(C(F)(F)F)cn4)ccnc3n2)nn1 [Compound 73, N,N-diethyl-N′-[5-(trifluoromethyl)-6-(8-{[5-(trifluoromethyl)pyridin-2-yl]amino}pyrido[2,3-b]pyrazin-3-yl)pyridazin-3-yl]propane-1,3-diamine]
CCCN(CCC)CCNc1cc(C(F)(F)F)c(-c2cnc3c(Nc4ccc(C(F)(F)F)cn4)ccnc3n2)nn1 [Compound 83, N,N-dipropyl-N′-[5-(trifluoromethyl)-6-(8-{[5-(trifluoromethyl)pyridin-2-yl]amino}pyrido[2,3-b]pyrazin-3-yl)pyridazin-3-yl]ethane-1,2-diamine]
